The text below walks through data of ChEMBL document CHEMBL5365447, “Pronucleotides of 2',3'-Dideoxy-2',3'-Didehydrothymidine as Potent Anti-HIV Compounds” (J Med Chem, 2023).

Series [1] can be described thus: Selectivity index, ratio of CC50 for human CEM cells to EC50 for HIV-2 ROD infected in thymidine kinase-deficient human CEM cells. In kind it is toxicity. The settings on record: read-out: Ratio CC50/EC50.
The subject of series [2] is Human immunodeficiency virus 2. As to the kind of experiment: Antiviral activity against HIV-2 ROD infected in wild-type human CEM/0 cells assessed as inhibition of virus-induced cytopathic effect incubated for 4 to 5 days by light microscopic analysis. In kind it is functional, organism-based. The note with it: Human immunodeficiency virus 2, ROD, CCRF-CEM. A general note: Damage to the host cells serves as the signal in cytopathic effect assays.

Series [3] is described as follows: Chemical stability of the compound in phosphate buffer assessed as half life at pH 7.3 by HPLC analysis. In kind it is physicochemical.
Series [4] can be described thus: Cytotoxicity against human CEM cells assessed as reduction in cell viability incubated for 4 to 5 days by light microscopic analysis. The settings on record: CEM cells (CCRF-CEM), time 4-5 day. In kind it is toxicity, cell-based.
The target of series [5] is T1, DNA polymerase subunit gamma-1 (Homo sapiens) (UniProt P54098).
T1 sequence (whole entry): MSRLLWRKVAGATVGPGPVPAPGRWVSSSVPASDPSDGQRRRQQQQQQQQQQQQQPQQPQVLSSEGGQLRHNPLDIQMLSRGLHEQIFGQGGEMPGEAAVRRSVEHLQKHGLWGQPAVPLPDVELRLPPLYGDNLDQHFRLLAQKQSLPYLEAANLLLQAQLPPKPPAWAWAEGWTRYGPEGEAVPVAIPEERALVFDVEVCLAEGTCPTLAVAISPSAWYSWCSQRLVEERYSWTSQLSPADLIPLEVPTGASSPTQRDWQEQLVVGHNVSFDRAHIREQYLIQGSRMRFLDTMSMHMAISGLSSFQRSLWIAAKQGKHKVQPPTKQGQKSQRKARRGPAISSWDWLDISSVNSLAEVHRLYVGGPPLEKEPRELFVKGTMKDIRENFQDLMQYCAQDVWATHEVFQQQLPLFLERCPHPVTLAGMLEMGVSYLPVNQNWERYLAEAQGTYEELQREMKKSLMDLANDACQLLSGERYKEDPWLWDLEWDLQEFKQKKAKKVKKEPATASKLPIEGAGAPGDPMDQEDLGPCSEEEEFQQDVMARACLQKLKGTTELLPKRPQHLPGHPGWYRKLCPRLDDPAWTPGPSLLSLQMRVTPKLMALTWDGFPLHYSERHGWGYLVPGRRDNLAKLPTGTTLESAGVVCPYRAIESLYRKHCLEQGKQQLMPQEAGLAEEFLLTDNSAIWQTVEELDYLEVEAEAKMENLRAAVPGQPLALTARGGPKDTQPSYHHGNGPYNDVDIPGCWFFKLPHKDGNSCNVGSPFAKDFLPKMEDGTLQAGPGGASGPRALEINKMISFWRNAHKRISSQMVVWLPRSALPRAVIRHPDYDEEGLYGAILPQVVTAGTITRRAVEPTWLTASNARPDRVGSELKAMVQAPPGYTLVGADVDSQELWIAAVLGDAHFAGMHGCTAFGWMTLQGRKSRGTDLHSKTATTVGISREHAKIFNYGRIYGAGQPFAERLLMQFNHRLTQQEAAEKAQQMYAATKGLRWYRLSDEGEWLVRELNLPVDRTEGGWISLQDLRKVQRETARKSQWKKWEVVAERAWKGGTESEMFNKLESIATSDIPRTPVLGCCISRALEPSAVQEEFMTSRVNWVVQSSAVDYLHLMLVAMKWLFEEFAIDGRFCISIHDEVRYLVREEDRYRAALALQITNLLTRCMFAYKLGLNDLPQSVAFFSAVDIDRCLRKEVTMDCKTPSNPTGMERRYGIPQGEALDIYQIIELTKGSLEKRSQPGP
As to the kind of experiment: Substrate activity at human DNA polymerase gamma measured after 4 hrs by electrophoresis based primer extension assay.

The nature of series [6]: Prodrug conversion in human CEM/0 cell extract assessed as metabolite formation by measuring half life by HPLC analysis. In kind it is ADME. The note with it: ccrf-cem.
In series [7] the test system is Human immunodeficiency virus 2. As to the kind of experiment: Potency index, ratio of 3'-deoxy-2',3'-dehydrothymidine EC50 to compound EC50 for antiviral activity against HIV-2 ROD infected in thymidine kinase-deficient human CEM[…] cells. In kind it is functional.
The nature of series [8]: Prodrug conversion in pH 7.3 phosphate buffer assessed as ((2S,5R)-5-(5-methyl-2,4-dioxo-3,4-dihydropyrimidin-1(2H)-yl)-2,5-dihydrofuran-2-yl)methyl tri-hydrogen diphosphate formation by measuring half life in presence of pig liver esterase by HPLC analysis. In kind it is ADME.
Series [9] can be described thus: Retention time of the compound by HPLC analysis. In kind it is physicochemical.
For series [10], the system named is Human immunodeficiency virus 1. Nature of the series: Potency index, ratio of 3'-deoxy-2',3'-dehydrothymidine EC50 to compound EC50 for antiviral activity against HIV-1 HE infected in wild-type human CEM/0 cells. In kind it is functional.
Series [11] has as its target T2, DNA polymerase alpha catalytic subunit (Homo sapiens) (UniProt P09884).
T2 sequence (whole entry): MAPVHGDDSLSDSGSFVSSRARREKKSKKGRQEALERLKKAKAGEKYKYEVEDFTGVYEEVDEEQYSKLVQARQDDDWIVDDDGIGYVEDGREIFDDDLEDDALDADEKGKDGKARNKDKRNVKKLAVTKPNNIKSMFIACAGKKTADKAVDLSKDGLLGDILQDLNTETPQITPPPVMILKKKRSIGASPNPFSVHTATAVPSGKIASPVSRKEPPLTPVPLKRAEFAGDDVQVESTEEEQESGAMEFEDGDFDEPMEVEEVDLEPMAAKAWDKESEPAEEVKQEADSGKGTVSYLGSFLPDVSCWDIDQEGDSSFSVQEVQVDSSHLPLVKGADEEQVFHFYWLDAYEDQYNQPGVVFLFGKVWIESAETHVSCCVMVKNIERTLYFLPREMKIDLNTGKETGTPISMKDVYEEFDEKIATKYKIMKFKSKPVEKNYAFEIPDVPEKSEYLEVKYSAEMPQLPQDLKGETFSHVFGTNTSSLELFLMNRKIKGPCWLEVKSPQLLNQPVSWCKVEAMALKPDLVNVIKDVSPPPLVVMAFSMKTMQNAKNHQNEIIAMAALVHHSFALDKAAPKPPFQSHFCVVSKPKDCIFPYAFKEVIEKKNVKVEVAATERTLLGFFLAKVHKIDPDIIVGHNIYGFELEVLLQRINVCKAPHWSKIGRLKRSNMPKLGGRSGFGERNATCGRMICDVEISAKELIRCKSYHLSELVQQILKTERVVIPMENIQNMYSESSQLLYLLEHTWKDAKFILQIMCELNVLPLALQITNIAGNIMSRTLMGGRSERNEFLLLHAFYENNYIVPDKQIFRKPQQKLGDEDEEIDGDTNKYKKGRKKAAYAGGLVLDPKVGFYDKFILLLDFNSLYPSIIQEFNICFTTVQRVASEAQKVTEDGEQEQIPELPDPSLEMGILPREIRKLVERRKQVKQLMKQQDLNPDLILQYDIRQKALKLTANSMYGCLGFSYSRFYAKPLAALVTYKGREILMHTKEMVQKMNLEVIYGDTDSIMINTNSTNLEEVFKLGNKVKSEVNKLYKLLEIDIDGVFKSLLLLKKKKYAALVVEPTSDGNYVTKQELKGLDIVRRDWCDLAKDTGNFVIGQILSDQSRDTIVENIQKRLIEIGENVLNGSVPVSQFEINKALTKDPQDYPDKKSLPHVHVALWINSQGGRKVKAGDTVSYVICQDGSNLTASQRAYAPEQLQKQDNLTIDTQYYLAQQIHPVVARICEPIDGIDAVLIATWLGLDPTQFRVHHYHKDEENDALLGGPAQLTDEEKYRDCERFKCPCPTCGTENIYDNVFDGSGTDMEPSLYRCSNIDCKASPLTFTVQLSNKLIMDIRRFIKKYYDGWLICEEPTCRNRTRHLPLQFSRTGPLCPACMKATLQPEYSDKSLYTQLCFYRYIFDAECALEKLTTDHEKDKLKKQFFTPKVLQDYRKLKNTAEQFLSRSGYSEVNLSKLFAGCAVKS
Nature of the series: Substrate activity at human DNA polymerase alpha measured after 4 hrs by electrophoresis based primer extension assay.

Series [12] deals with Human immunodeficiency virus 1. Nature of the series: Antiviral activity against HIV-1 HE infected in wild-type human CEM/0 cells assessed as inhibition of virus-induced cytopathic effect incubated for 4 to 5 days by light microscopic analysis. In kind it is functional, organism-based. The note with it: Human immunodeficiency virus 1, HE, CCRF-CEM.
Series [13] relates to Human immunodeficiency virus 2. Nature of the series: Potency index, ratio of 3'-deoxy-2',3'-dehydrothymidine EC50 to compound EC50 for antiviral activity against HIV-2 ROD infected in wild-type human CEM/0 cells. In kind it is functional.
Series [14] relates to Human immunodeficiency virus. As to the kind of experiment: Substrate activity at HIV reverse transcriptase measured after 4 hrs by electrophoresis based primer extension assay.
In series [15] the test system is Human immunodeficiency virus 2. Nature of the series: Antiviral activity against HIV-2 ROD infected in thymidine kinase-deficient human CEM cells assessed as inhibition of virus-induced cytopathic effect incubated for 4 to 5 days by light microscopic analysis. In kind it is functional, organism-based. The settings on record: Human immunodeficiency virus 2, ROD, CCRF-CEM.

Series [16] addresses DNA polymerase beta (Homo sapiens) (UniProt P06746). Nature of the series: Substrate activity at human DNA polymerase beta measured after 4 hrs by electrophoresis based primer extension assay.

Molecules are shown by their SMILES. Active and inactive are the calls of the source. The rule behind the calls is not given here.

Broadly, the EC50 is the midpoint of the concentration-response curve. In general, half-life refers to how long it takes for the measured level to halve. By CC50 is commonly meant the concentration that lowers cell viability or growth by half.

As to `CCCCCCCCCCCCCCCCCCOP(=O)(OC)OP(=O)(O)OP(=O)(O)OC[C@@H]1C=C[C@H](n2cc(C)c(=O)[nH]c2=O)O1.N.N` (some centres not stated), in series [1], the selectivity ratio was found to be 2270. In addition, the EC50 is 25 nM in series [2], 77 nM in series [12] and 15 nM in [15]. Further, the half-life in series [3] is 32.9 days. In addition, the CC50 in series [4] came out at 34000 nM. The outcome in [5], in series [11] and in series [16] was inactive. For the same molecule, the figures for the t1/2 in [6] and in series [8] were over 0.625 days and over 6.25 days, respectively. The “Ratio EC50” value was 10000 in [7], 4 in [10] and 4 in series [13]. In [9], this molecule registered a Retention_time of 15.6 min. For the same molecule, in series [14], the result was Active.

`CCCCCCCCCCCCCCCCCCP(=O)(OCC(CC)CCCC)OP(=O)(O)OP(=O)(O)OC[C@@H]1C=C[C@H](n2cc(C)c(=O)[nH]c2=O)O1.N.N` (some centres not stated): the selectivity ratio in [1] stood at 175. In addition, the 50% effective concentration (EC50) in series [2] was 140 nM; in series [12], 90 nM; in [15], 240 nM. Besides, the half-life in [3] was over 41.7 days. Moreover, the CC50 in series [4] is 42000 nM. The outcome in series [5], in [11] and in series [16] was inactive. The Drug metabolism entry in [6] and in [8] was “Metabolite_Notdetected” in each case. Moreover, the “Ratio EC50” value in series [7] was 10000; in series [10], 4; in [13] it was 4. This molecule yielded a Retention_time in series [9] of 17.1 min.

On to `CCCCCCCCCCCCCCCCCCP(=O)(OCCCCCCCCCCCC)OP(=O)(O)OP(=O)(O)OC[C@@H]1C=C[C@H](n2cc(C)c(=O)[nH]c2=O)O1.N.N` (some centres not stated), for which the selectivity ratio in series [1] was 143. The EC50 in series [2] is 210 nM; in [12], 130 nM; in series [15], 350 nM. For the same molecule, in series [3], the half-life is 34.6 days. For the same molecule, the 50% cytotoxic concentration (CC50) in series [4] came to 50000 nM. The result in series [5], in series [11] and in [16] was inactive. In addition, the Drug metabolism entry in [6] and in [8] was “Metabolite_Notdetected” each time. Also, the “Ratio EC50” value in series [7] is on record as 10000; in [10], 4; in series [13], 4. The Retention_time in [9] is given as 18.9 min.

As for `CCCCCCCCCCCCCCCCCCOP(=O)(OCC(CC)CCCC)OP(=O)(O)OP(=O)(O)OC[C@@H]1C=C[C@H](n2cc(C)c(=O)[nH]c2=O)O1.N.N` (some centres not stated), the selectivity ratio in series [1] was found to be 6800. Moreover, the results for the EC50 in series [2], in [12] and in series [15] were 36 nM, 75 nM and 5 nM, respectively. Also, the half-life in series [3] was over 83.3 days. Moreover, the CC50 in series [4] is 34000 nM. Besides, the result in [5], in series [11] and in [16] was inactive. The Drug metabolism result in series [6] and in series [8] was “Metabolite_Notdetected” each time. For the same molecule, the “Ratio EC50” value in [7] is listed as 10000; in [10], 4; in series [13], 4. In [9], the Retention_time came out at 17.3 min. Further, the outcome in [14] was Active.
